This test deals with E. coli. Put plainly: Efficacy of treated coupons after inoculation with E. coli (Examples II-V). The test is classed as cell-based. The conditions noted are these: Examples IV/V: organosilane with triethanolamine coating first, Titanium Oxide Moieties (TiO2) disposed over it. On the procedure:
This Example II disposes the components of the composition onto a target surface in a reverse order. More specifically, Applicants first dispose the Titanium-Oxide Moieties onto the target surface, the aqueous portion of the first spray deposition is evaporated, and then dispose Octadecylaminodimethyltrihydroxysilylpropyl Ammonium Chloride 6 over the earlier-disposed Titanium-Oxide Moieties.
The test coupons of this Example II were prepared and using the Procedure recited immediately hereinbelow. In various embodiments, the treated coupons were stored for at least four (4) weeks prior to inoculation with various organisms.
This Example III simultaneously disposes a mixture of the organosilane and the Titanium-Oxide Moieties onto the surface of a plurality of test coupons. More specifically in this Example III, the simultaneously dispose the Titanium-Oxide Moieties and Octadecylaminodimethyltrihydroxysilylpropyl Ammonium Chloride 6 onto a surface of each test coupon.
The test coupons of this Example III were prepared and using the Procedure recited immediately hereinbelow. In various embodiments, the treated coupons were stored for at least four (4) weeks prior to inoculation with various organisms.
The test coupons of this Example IV were prepared and using the Procedure recited immediately hereinbelow. […]

In the case of `NCCC[Si](O)(O)O` [3-aminopropyltrihydroxysilane], the “efficacy of treated coupons (self-decontaminating surface)” value is “generates a self-decontaminating surface”. The entry for `O[Si](O)(O)CCCCl` [3-chloropropyltrihydroxysilane] is “generates a self-decontaminating surface”.

Values taken from patent US11369114B2, “Antimicrobial coatings comprising organosilane homopolymers” (ALLIED BIOSCIENCE, INC., priority 2014, dated 2022).
